Assay results from patent publication EP4446411A1, “VARIANT SUBTILISIN PROTEASES” (PEACCEL, priority 2023, dated 2024).
*1 amine or outer side, *2 acyl side, *3 side chain or, on linkers, in order; H or OH if unused. Where a SMILES comes first, the peptide text is derived from it. The star is where a group is joined. pNA = O=[N+]([O-])c1ccc(N*)cc1; Suc = O=C(CCC(=O)[*:2])[*:1]

What was measured:
Assay in all cases: Kinetic parameters by release of p-nitroaniline from suc-AAPFpNA (absorbance at 410 nm, Michaelis-Menten fit)
[1] = molecular target: T1, Bacillus lentus subtilisin variant N74D/S99G/V102W/S126G/N198A/N212S/T254P, SEQ ID NO: 5 (Lederbergia lenta, UniProt P29600, N198A/N212S/N74D/S126G/S99G/T254P/V102W); type: biochemical
T1 construct: made in house; host or cells: protease deficient Bacillus subtilis 168
T1 sequence (P29600 1-269 N74D/S99G/V102W/S126G/N198A/N212S/T254P): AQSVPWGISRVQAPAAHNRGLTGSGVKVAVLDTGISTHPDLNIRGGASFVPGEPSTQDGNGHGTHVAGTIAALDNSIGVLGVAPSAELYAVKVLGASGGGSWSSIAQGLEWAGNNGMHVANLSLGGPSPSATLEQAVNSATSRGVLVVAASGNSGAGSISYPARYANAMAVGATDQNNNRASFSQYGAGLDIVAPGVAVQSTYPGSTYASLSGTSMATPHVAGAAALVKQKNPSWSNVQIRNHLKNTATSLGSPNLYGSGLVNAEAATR
Method: (§1) Three selected mutants as well as the wild-type and one mutant of the patent application WO1995010591 A1 data set were cloned in a Bacillus vector behind a constitutive APRE promotor and expressed in a protease deficient Bacillus subtilis 168 strain. The transformed strains were grown for 24 hours at 37°C in shake flasks. The subtilisin variants were purified by Ion exchange chromatography followed by […] with a 0-200 mM salt gradient. The activity of the protease variants was determined by the release of the chromophore para-nitroanilide from succinyl-alanine-alanine-proline-phenylalanine-para-nitroanilide (suc-AAPFpNA). The release of the pNA causes an increase in the absorbance at 410 nm, the temporal progression of which is used as a measure of the activity of the enzymes.
(§2) The kinetic parameters kcat and Km of the variants were measured using basically the method described in Bonneau, P. R., Graycar, T. P., Estell, D. A., & Jones, J. B. (1991). Alteration of the specificity of subtilisin BPN'by site-directed mutagenesis in its S1 and S1'binding sites. Journal of the American Chemical Society, 113(3), 1026-1030. A small aliquot of purified subtilisin variant was added to a 96 microtiterplate well containing succinyl-L-Ala-L-Ala-L-Pro-L-Phe-p-nitroanilide (SEQ ID NO: 1) dissolved in 0.1M Tris-HCL, pH 8.6. The reaction progress was measured spectrophotometrically at 25°C by monitoring the absorbance of p-nitroaniline at 410nm. The corresponding experimental values were fit to the Michaelis-Menten equation by a regression algorithm. The kcat/KM ratio was obtained by dividing the resulting values. […] Table 2: kinetic parameters kcat and Km of the variants at pH 8.6
(§3) The kinetic parameters kcat and Km of the variants were also measured using basically the method described in Bonneau, P. R., Graycar, T. P., Estell, D. A., & Jones, J. B. (1991). Alteration of the specificity of subtilisin BPN'by site-directed mutagenesis in its S1 and S1'binding sites. Journal of the American Chemical Society, 113(3), 1026-1030. A small aliquot of purified subtilisin variant was added to a microtiterplate containing suc-AAPFpNA (SEQ ID NO:1) dissolved in 0.1M glycine pH10. The reaction progress was measured spectrophotometrically by monitoring the absorbance of p-nitroaniline at 410nm. The corresponding experimental values were fit to the Michaelis-Menten equation by a regression algorithm. The kcat/Km ratio was obtained by dividing the resulting values. […] Kcat kcat/km are indicated as % compared to the wild-type (100%). Table 3: kinetic parameters kcat and Km of the variants at pH 10

[2] = molecular target: T2, Bacillus lentus subtilisin variant N74D/S97D/S126G/P204I/T254P/S259N, SEQ ID NO: 6 (Lederbergia lenta, UniProt P29600, N74D/P204I/S126G/S259N/S97D/T254P); type: biochemical
T2 construct: made in house; host or cells: protease deficient Bacillus subtilis 168
T2 sequence (P29600 1-269 N74D/S97D/S126G/P204I/T254P/S259N): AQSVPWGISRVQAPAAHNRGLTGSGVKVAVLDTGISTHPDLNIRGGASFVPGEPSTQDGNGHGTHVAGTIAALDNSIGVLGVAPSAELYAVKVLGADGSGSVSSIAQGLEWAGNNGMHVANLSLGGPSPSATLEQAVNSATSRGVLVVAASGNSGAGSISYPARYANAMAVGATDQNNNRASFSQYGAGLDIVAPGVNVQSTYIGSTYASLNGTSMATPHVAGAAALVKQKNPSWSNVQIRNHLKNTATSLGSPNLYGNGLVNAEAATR
Method: as §1, §2, §3

[3] = molecular target: T3, Bacillus lentus subtilisin variant N74D/S101A/V102W (control variant of WO1995010591), SEQ ID NO: 3 (Lederbergia lenta, UniProt P29600, N74D/S101A/V102W); type: biochemical
T3 construct: made in house; host or cells: protease deficient Bacillus subtilis 168
T3 sequence (P29600 1-269 N74D/S101A/V102W): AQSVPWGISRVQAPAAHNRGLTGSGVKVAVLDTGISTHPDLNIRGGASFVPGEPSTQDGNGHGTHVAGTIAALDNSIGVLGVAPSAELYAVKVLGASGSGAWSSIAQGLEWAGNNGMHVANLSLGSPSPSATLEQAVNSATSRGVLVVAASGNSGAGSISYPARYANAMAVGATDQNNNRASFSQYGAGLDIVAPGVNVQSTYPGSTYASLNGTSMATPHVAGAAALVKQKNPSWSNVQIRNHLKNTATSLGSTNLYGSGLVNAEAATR
Method: as §1, §2, §3

[4] = molecular target: T4, Bacillus lentus subtilisin variant N74D/S99G/V102W/S126G/D191E/N198G/N212S/T254P, SEQ ID NO: 4 (Lederbergia lenta, UniProt P29600, D191E/N198G/N212S/N74D/S126G/S99G/T254P/V102W); type: biochemical
T4 construct: made in house; host or cells: protease deficient Bacillus subtilis 168
T4 sequence (P29600 1-269 N74D/S99G/V102W/S126G/D191E/N198G/N212S/T254P): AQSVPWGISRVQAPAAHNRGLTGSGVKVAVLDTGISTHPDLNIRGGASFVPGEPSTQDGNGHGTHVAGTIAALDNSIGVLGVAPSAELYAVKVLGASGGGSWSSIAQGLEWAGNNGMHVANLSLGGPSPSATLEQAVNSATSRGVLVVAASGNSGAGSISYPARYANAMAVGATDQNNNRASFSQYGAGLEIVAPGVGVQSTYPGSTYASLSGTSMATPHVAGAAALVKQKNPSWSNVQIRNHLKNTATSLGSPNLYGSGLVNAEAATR
Method: as §1, §2, §3

[5] = molecular target: T5, wild-type subtilisin of Bacillus lentus (GG36), WT, SEQ ID NO: 2 (Lederbergia lenta, UniProt P29600); type: biochemical
T5 construct: made in house; host or cells: protease deficient Bacillus subtilis 168
T5 sequence (P29600 1-269): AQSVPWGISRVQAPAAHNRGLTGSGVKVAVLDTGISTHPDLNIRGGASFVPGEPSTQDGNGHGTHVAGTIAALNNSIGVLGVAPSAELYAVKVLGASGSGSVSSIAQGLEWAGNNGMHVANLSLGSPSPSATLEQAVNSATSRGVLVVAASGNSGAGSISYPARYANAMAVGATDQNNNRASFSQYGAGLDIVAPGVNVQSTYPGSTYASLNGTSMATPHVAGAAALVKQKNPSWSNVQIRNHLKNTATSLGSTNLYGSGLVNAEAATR
Method: as §1, §2, §3

[6] = substrate: C[C@H](NC(=O)CCC(=O)O)C(=O)N[C@@H](C)C(=O)N1CCC[C@H]1C(=O)N[C@@H](Cc1ccccc1)C(=O)Nc1ccc([N+](=O)[O-])cc1; type: biochemical, Bacillus lentus
Method: as §1, §2, §3

[7] = other: 0.1M Tris-HCL, pH 8.6, 25°C, pH 8.6, 25.0 °C
[8] = other: 0.1M glycine pH10, pH 10.0

C[C@H](NC(=O)CCC(=O)O)C(=O)N[C@@H](C)C(=O)N1CCC[C@H]1C(=O)N[C@@H](Cc1ccccc1)C(=O)Nc1ccc([N+](=O)[O-])cc1 [succinyl-L-Ala-L-Ala-L-Pro-L-Phe-p-nitroanilide] (Suc-AAPF-pNA)
kcat pH 8.6 ([1]; 0.1M Tris-HCL, pH 8.6, 25°C): 503 % of wild-type
kcat/Km pH 8.6 ([1]; 0.1M Tris-HCL, pH 8.6, 25°C): 6362 % of wild-type
kcat pH 10 ([1]; 0.1M glycine pH10): 723 %half-life of wild-type
kcat/Km pH10 ([1]; 0.1M glycine pH10): 10827 % wild-type
kcat pH 8.6 ([2]; 0.1M Tris-HCL, pH 8.6, 25°C): 55 % of wild-type
kcat/Km pH 8.6 ([2]; 0.1M Tris-HCL, pH 8.6, 25°C): 51 % of wild-type
kcat pH 10 ([2]; 0.1M glycine pH10): 37 %half-life of wild-type
kcat/Km pH10 ([2]; 0.1M glycine pH10): 97 % wild-type
kcat pH 8.6 ([3]; 0.1M Tris-HCL, pH 8.6, 25°C): 638 % of wild-type
kcat/Km pH 8.6 ([3]; 0.1M Tris-HCL, pH 8.6, 25°C): 1392 % of wild-type
kcat pH 10 ([3]; 0.1M glycine pH10): 554 %half-life of wild-type
kcat/Km pH10 ([3]; 0.1M glycine pH10): 2263 % wild-type
kcat pH 8.6 ([4]; 0.1M Tris-HCL, pH 8.6, 25°C): 579 % of wild-type
kcat/Km pH 8.6 ([4]; 0.1M Tris-HCL, pH 8.6, 25°C): 3326 % of wild-type
kcat pH 10 ([4]; 0.1M glycine pH10): 719 %half-life of wild-type
kcat/Km pH10 ([4]; 0.1M glycine pH10): 5100 % wild-type
kcat pH 8.6 ([5]; 0.1M Tris-HCL, pH 8.6, 25°C): 100 % of wild-type
kcat/Km pH 8.6 ([5]; 0.1M Tris-HCL, pH 8.6, 25°C): 100 % of wild-type
kcat pH 10 ([5]; 0.1M glycine pH10): 100 %half-life of wild-type
kcat/Km pH10 ([5]; 0.1M glycine pH10): 100 % wild-type

B1: wild-type subtilisin of Bacillus lentus (GG36), WT, SEQ ID NO: 2 (Lederbergia lenta) (protein)
chain: AQSVPWGISRVQAPAAHNRGLTGSGVKVAVLDTGISTHPDLNIRGGASFVPGEPSTQDGNGHGTHVAGTIAALNNSIGVLGVAPSAELYAVKVLGASGSGSVSSIAQGLEWAGNNGMHVANLSLGSPSPSATLEQAVNSATSRGVLVVAASGNSGAGSISYPARYANAMAVGATDQNNNRASFSQYGAGLDIVAPGVNVQSTYPGSTYASLNGTSMATPHVAGAAALVKQKNPSWSNVQIRNHLKNTATSLGSTNLYGSGLVNAEAATR
notes: made in house; host or cells: protease deficient Bacillus subtilis 168
Km [6, 7]: 630 µM
Km [6, 8]: 1340 µM

B2: Bacillus lentus subtilisin variant N74D/S101A/V102W (control variant of WO1995010591), SEQ ID NO: 3 (Lederbergia lenta; N74D/S101A/V102W) (protein)
chain: AQSVPWGISRVQAPAAHNRGLTGSGVKVAVLDTGISTHPDLNIRGGASFVPGEPSTQDGNGHGTHVAGTIAALDNSIGVLGVAPSAELYAVKVLGASGSGAWSSIAQGLEWAGNNGMHVANLSLGSPSPSATLEQAVNSATSRGVLVVAASGNSGAGSISYPARYANAMAVGATDQNNNRASFSQYGAGLDIVAPGVNVQSTYPGSTYASLNGTSMATPHVAGAAALVKQKNPSWSNVQIRNHLKNTATSLGSTNLYGSGLVNAEAATR
notes: as for B1
Km [6, 7]: 290 µM
Km [6, 8]: 330 µM

B3: Bacillus lentus subtilisin variant N74D/S97D/S126G/P204I/T254P/S259N, SEQ ID NO: 6 (Lederbergia lenta; N74D/P204I/S126G/S259N/S97D/T254P) (protein)
chain: AQSVPWGISRVQAPAAHNRGLTGSGVKVAVLDTGISTHPDLNIRGGASFVPGEPSTQDGNGHGTHVAGTIAALDNSIGVLGVAPSAELYAVKVLGADGSGSVSSIAQGLEWAGNNGMHVANLSLGGPSPSATLEQAVNSATSRGVLVVAASGNSGAGSISYPARYANAMAVGATDQNNNRASFSQYGAGLDIVAPGVNVQSTYIGSTYASLNGTSMATPHVAGAAALVKQKNPSWSNVQIRNHLKNTATSLGSPNLYGNGLVNAEAATR
notes: as for B1
Km [6, 7]: 660 µM
Km [6, 8]: 520 µM

B4: Bacillus lentus subtilisin variant N74D/S99G/V102W/S126G/N198A/N212S/T254P, SEQ ID NO: 5 (Lederbergia lenta; N198A/N212S/N74D/S126G/S99G/T254P/V102W) (protein)
chain: AQSVPWGISRVQAPAAHNRGLTGSGVKVAVLDTGISTHPDLNIRGGASFVPGEPSTQDGNGHGTHVAGTIAALDNSIGVLGVAPSAELYAVKVLGASGGGSWSSIAQGLEWAGNNGMHVANLSLGGPSPSATLEQAVNSATSRGVLVVAASGNSGAGSISYPARYANAMAVGATDQNNNRASFSQYGAGLDIVAPGVAVQSTYPGSTYASLSGTSMATPHVAGAAALVKQKNPSWSNVQIRNHLKNTATSLGSPNLYGSGLVNAEAATR
notes: as for B1
Km [6, 7]: 50 µM
Km [6, 8]: 90 µM

B5: Bacillus lentus subtilisin variant N74D/S99G/V102W/S126G/D191E/N198G/N212S/T254P, SEQ ID NO: 4 (Lederbergia lenta; … (protein)
chain: AQSVPWGISRVQAPAAHNRGLTGSGVKVAVLDTGISTHPDLNIRGGASFVPGEPSTQDGNGHGTHVAGTIAALDNSIGVLGVAPSAELYAVKVLGASGGGSWSSIAQGLEWAGNNGMHVANLSLGGPSPSATLEQAVNSATSRGVLVVAASGNSGAGSISYPARYANAMAVGATDQNNNRASFSQYGAGLEIVAPGVGVQSTYPGSTYASLSGTSMATPHVAGAAALVKQKNPSWSNVQIRNHLKNTATSLGSPNLYGSGLVNAEAATR
notes: as for B1
Km [6, 7]: 110 µM
Km [6, 8]: 190 µM
